Data: patent US11981640B1, “4,5-bis(4-chlorophenyl)-1-hexyl-2-(3-hydroxy-4-methoxyphenyl)-1H-imidazole as an antimicrobial compound” (KING FAISAL UNIVERSITY, priority 2023, dated 2024)

Key:
Format in all cases: cell-based
Conditions in all cases: after 10, 20, 40 and 60 minutes at all dilutions 1:100, 1:200, 1:400, 1:800
Staphylococcus aureus = assay: Antimicrobial testing by agar dilution, Staphylococcus aureus
Experimental: (§1) The antimicrobial properties of the 4,5-bis(4-chlorophenyl)-1-hexyl-2-(3-hydroxy-4-methoxyphenyl)-1H-imidazole (5) were studied by the method of agar dilution. Test solutions of each compound were prepared in concentration of 1% using dimethylformamide as a solvent then they are diluted in physiological solution to obtain the final experimental dilutions 1:100, 1:200, 1:400, 1:800. The effect of these substances were compared with furacillin in a controllable study. The testing microbes used were gram positive bacteria Staphylococcus aureus, gram negative bacteria Escherichia coli, Pseudomonas aeruginosa and Candida albicans fungi were taken. The experiments used for this survey were meat-pentonlu agar (EPA) for cultivation of bacteria and Saburo environment for fungi. Each experiment used 1 ml of test solution on each plate 500 min. Add 2 drops of emulsified with microbes feel. All experimental samples were taken from the agar after 10, 20, 40, 60 minutes in the environment on the basis of Patrk planted. Bacteria were cultivated at a temperature of 37° C. for 1 day and the mushroom was kept in a thermostat for 2 hours at a temperature of 28° C. in the. Then results were checked.

Candida albicans = assay: Antimicrobial testing by agar dilution, Candida albicans
Experimental: as §1

Escherichia coli = assay: Antimicrobial testing by agar dilution, Escherichia coli
Experimental: as §1

Pseudomonas aeruginosa = assay: Antimicrobial testing by agar dilution, Pseudomonas aeruginosa
Experimental: as §1

CCCCCCn1c(-c2ccc(OC)c(O)c2)nc(-c2ccc(Cl)cc2)c1-c1ccc(Cl)cc1 [4,5-bis(4-chlorophenyl)-1-hexyl-2-(3-hydroxy-4-methoxyphenyl)-1H-imidazole]
highest inhibition activity: inhibition activity, Staphylococcus aureus (Staphylococcus aureus) | inhibition activity, Candida albicans (Candida albicans) | inhibition activity, Escherichia coli (Escherichia coli) | inhibition activity, Pseudomonas aeruginosa (Pseudomonas aeruginosa)
